Our source for the viability, T/C and IC50 values is PubChem BioAssay AID1963974 (Molecular Pharmacology Branch, DTP, NCI, 2024).

Values joined by “and” are separate entries in the source; they are usually repeats but may differ in a detail not shown here. Equal values may be shown once.

For the experiment, the system named is 648629-189-R-J1-PDC spheroids with HUVEC/MSC, viability. Put plainly: Anticancer human tumor 648629-189-R-J1-PDC patient-derived bladder carcinoma cell line growth inhibition [PI3K]. The note with it: for viability, T/C: stronger effect = lower value. The method in brief:
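Multi-cell spheroids combine tumor cells with HUVEC and human MSCs, treated with targeted agents alone or with inavolisib, alpelisib, duvelisib or copanlisib. Concentrations fall in half-log steps from at or near clinical Cmax, or from 10 microM where Cmax is unknown; viability read-out.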
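Also: spheroids exposed to agents for seven days before reading.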
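For viability, T/C in this document: percent of vehicle control luminescence where 100% = DMSO treated spheroids.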

The term viability, T/C denotes the result in the treated group divided by that in the control group, in per cent. One may read the IC50 as the concentration that inhibits the measured activity by half. As to `CC1(C)CCC(Nc2ncc(C(F)(F)F)c(-c3c[nH]c4c(P(C)(C)=O)c(C#N)ccc34)n2)CN1` (configuration not stated), the viability, T/C (compound 0.0316 µM) was 30.3% [middle of 4 runs]; the viability, T/C (compound 0.1 µM) was 27.1% [middle of 4 runs]; the viability, T/C (compound 0.316 µM) is 32.2% [middle of 4 runs]; the viability, T/C (compound 1 µM) was 36.1% [middle of 4 runs]; the viability, T/C (compound 3.16 µM) is 39.7% (2×) and 40.8% and 38.2%; the viability, T/C (compound 10 µM) is 5.52% [middle of 4 runs]. In addition, the half-inhibitory concentration (IC50) (curve of compound) was less than 31.6 nM.
